Results taken from the NIST ThermoML archive (doi:10.1021/je900757k).

Assay: isobaric coefficient of expansion
Settings: Liquid, DSC

c1ccccc1 [benzene]
isobaric coefficient of expansion
Settings	298.15 K	308.15 K	318.15 K	328.15 K	338.15 K	348.15 K
5000 kPa	0.0012 1/K	0.00121 1/K	0.00123 1/K	0.00126 1/K	0.00129 1/K	0.00132 1/K
10000 kPa	0.00116 1/K	0.00118 1/K	0.00119 1/K	0.00121 1/K	0.00123 1/K	0.00125 1/K
15000 kPa	0.00114 1/K	0.00115 1/K	0.00115 1/K	0.00117 1/K	0.00118 1/K	0.0012 1/K
20000 kPa	0.00111 1/K	0.00112 1/K	0.00113 1/K	0.00113 1/K	0.00114 1/K	0.00115 1/K
25000 kPa	0.00108 1/K	0.00108 1/K	0.00109 1/K	0.0011 1/K	0.0011 1/K	0.00111 1/K
30000 kPa	0.00105 1/K	0.00106 1/K	0.00106 1/K	0.00106 1/K	0.00107 1/K	0.00108 1/K
35000 kPa	0.00103 1/K	0.00103 1/K	0.00104 1/K	0.00104 1/K	0.00104 1/K	0.00104 1/K
40000 kPa	0.00101 1/K	0.00101 1/K	0.00101 1/K	0.00101 1/K	0.00101 1/K	0.00102 1/K
45000 kPa	0.000988 1/K	0.00099 1/K	0.000989 1/K	0.000989 1/K	0.000985 1/K	0.000986 1/K
50000 kPa	0.000971 1/K	0.000972 1/K	0.00097 1/K	0.000966 1/K	0.000966 1/K	0.000963 1/K
55000 kPa	0.000954 1/K	0.000955 1/K	0.000951 1/K	0.000948 1/K	0.000945 1/K	0.000941 1/K

CCCCCCCCCC [decane]
isobaric coefficient of expansion
Settings	278.15 K	288.15 K	298.15 K	308.15 K	318.15 K	328.15 K	338.15 K	348.15 K
5000 kPa	0.000969 1/K	0.000985 1/K	0.001 1/K	0.00102 1/K	0.00103 1/K	0.00105 1/K	0.00107 1/K	0.00108 1/K
10000 kPa	0.000945 1/K	0.000958 1/K	0.000975 1/K	0.000988 1/K	0.001 1/K	0.00101 1/K	0.00103 1/K	0.00103 1/K
15000 kPa	0.000922 1/K	0.000933 1/K	0.000949 1/K	0.000956 1/K	0.00097 1/K	0.000977 1/K	0.000987 1/K	0.000992 1/K
20000 kPa	0.000899 1/K	0.000907 1/K	0.000918 1/K	0.000928 1/K	0.000935 1/K	0.000942 1/K	0.00095 1/K	0.000956 1/K
25000 kPa	0.000878 1/K	0.000886 1/K	0.000896 1/K	0.000902 1/K	0.000907 1/K	0.000915 1/K	0.000919 1/K	0.000922 1/K
30000 kPa	0.000859 1/K	0.000868 1/K	0.000871 1/K	0.000878 1/K	0.000883 1/K	0.000885 1/K	0.000891 1/K	0.000893 1/K
35000 kPa	0.000843 1/K	0.000846 1/K	0.000849 1/K	0.000856 1/K	0.000858 1/K	0.000862 1/K	0.000862 1/K	0.000865 1/K
40000 kPa	0.000817 1/K	0.000823 1/K	0.000829 1/K	0.000834 1/K	0.000833 1/K	0.000833 1/K	0.000836 1/K	0.000835 1/K
45000 kPa	0.000807 1/K	0.000812 1/K	0.000812 1/K	0.000812 1/K	0.000815 1/K	0.000815 1/K	0.000816 1/K	0.000816 1/K
50000 kPa	0.000793 1/K	0.000797 1/K	0.000794 1/K	0.000796 1/K	0.000802 1/K	0.000797 1/K	0.000796 1/K	0.000795 1/K
55000 kPa	0.000784 1/K	0.00078 1/K	0.00078 1/K	0.000782 1/K	0.000781 1/K	0.000781 1/K	0.000779 1/K	0.000778 1/K
